From patent US4272437A, “Antibacterial agents, and 4-thio azetidinone intermediates” (priority 1979, dated 1981)
≈ marks a conversion by molar mass, not a printed value. Where two headings read alike, the source gives them in different places.

What was measured:
[1] = system: Str. pneumoniae A-9585; test: MIC, tube dilution, Streptococcus pneumoniae A9585; assay type: cell-based; settings: overnight 37° C., Nutrient Broth; for MIC: Streptococcus pneumoniae, A9585, Str. pneumoniae A9585, read-out: Minimum Inhibitory Concentration (M.I.C.); for Minimum Inhibitory Concentration (M.I.C.): Str. pneumoniae A9585
Text: (§1) Representative compounds of the present invention were subjected to in vitro antibiotic screening against a variety of microorganisms.

[2] = system: Str. pyogenes A-9604; test: MIC, tube dilution, Streptococcus pyogenes A9604; assay type: cell-based; settings: overnight 37° C., Nutrient Broth; for MIC: Streptococcus pyogenes, A9604, Str. pyogenes A9604, read-out: Minimum Inhibitory Concentration (M.I.C.)
Text: as §1

[3] = system: Staph. aureus A-9537; test: MIC, tube dilution, Staphylococcus aureus A9537; assay type: cell-based; settings: overnight 37° C., Nutrient Broth; for MIC: Staphylococcus aureus, A9537, Staph. aureus A9537, read-out: Minimum Inhibitory Concentration (M.I.C.); for Minimum Inhibitory Concentration (M.I.C.): Staph. aureus A9537
Text: as §1

[4] = system: Staph. aureus A-9537 and 50% serum; test: MIC, tube dilution, Staph. aureus A9537 + 50% serum; assay type: cell-based, Staphylococcus aureus; settings: overnight 37° C.; for MIC: Staphylococcus aureus, read-out: Minimum Inhibitory Concentration (M.I.C.)
Text: as §1

[5] = system: Staph. aureus (Pen-Res) A-9606; test: MIC, tube dilution, Staphylococcus aureus A9606 (Pen-Res); assay type: cell-based; settings: overnight 37° C.; for MIC: Staphylococcus aureus
Text: as §1

[6] = system: Staph. aureus (Meth-Res) A-15097; test: MIC, tube dilution, Staphylococcus aureus A15097 (Meth-Res); assay type: cell-based; settings: Staphylococcus aureus, overnight 37° C.
Text: as §1

[7] = system: Str. faecalis A-20688; test: MIC, tube dilution, Streptococcus faecalis A20688; assay type: cell-based; settings: Enterococcus faecalis, A20688, Str. faecalis A20688; overnight 37° C.; read-out: Minimum Inhibitory Concentration (M.I.C.)
Text: as §1

[8] = system: E. coli A-15119; test: MIC, tube dilution, Escherichia coli A15119; assay type: cell-based; settings: overnight 37° C.; for MIC: Escherichia coli, A15119, E. coli A15119, read-out: Minimum Inhibitory Concentration (M.I.C.); for Minimum Inhibitory Concentration (M.I.C.): E. coli A15119
Text: as §1

[9] = system: E. coli A-20341-1; test: MIC, tube dilution, Escherichia coli A20341-1; assay type: cell-based
Text: as §1

[10] = system: K. pneumoniae A-15130; test: MIC, tube dilution, Klebsiella pneumoniae A15130; assay type: cell-based; settings: overnight 37° C.; for MIC: Klebsiella pneumoniae, A15130, K. pneumoniae A15130, read-out: Minimum Inhibitory Concentration (M.I.C.); for Minimum Inhibitory Concentration (M.I.C.): K. pneumoniae A15130
Text: as §1

[11] = system: Klebsiella species A20468; test: MIC, tube dilution, Klebsiella species A20468; assay type: cell-based; settings: Klebsiella species (K. pneumoniae) A20468, overnight 37° C.; for MIC: read-out: Minimum Inhibitory Concentration (M.I.C.)
Text: as §1

[12] = system: Pr. mirabilis A-9900; test: MIC, tube dilution, Proteus mirabilis A9900; assay type: cell-based; settings: overnight 37° C.; for MIC: Proteus mirabilis, A9900, Proteus mirabilis A9900, read-out: Minimum Inhibitory Concentration (M.I.C.); for Minimum Inhibitory Concentration (M.I.C.): Proteus mirabilis A9900
Text: as §1

[13] = system: Pr. vulgaris A-9716; test: MIC, tube dilution, Proteus vulgaris / Proteus mirabilis A9716; assay type: cell-based, Proteus vulgaris (name changed to Proteus mirabilis); settings: overnight 37° C.; for MIC: Proteus vulgaris; for Minimum Inhibitory Concentration (M.I.C.): Proteus vulgaris / Proteus mirabilis A9716
Text: as §1

[14] = system: Pr. morganii A-15153; test: MIC, tube dilution, Proteus morganii A15153; assay type: cell-based; settings: overnight 37° C.; for MIC: Morganella morganii, A15153, Proteus morganii A15153, read-out: Minimum Inhibitory Concentration (M.I.C.); for Minimum Inhibitory Concentration (M.I.C.): Proteus morganii A15153
Text: as §1

[15] = system: Providencia stuartii A21205; test: MIC, tube dilution, Providencia stuartii (Pr. rettgeri) A21205; assay type: cell-based; settings: for MIC: Providencia stuartii
Text: as §1

[16] = system: Ser. marcescens A-20019; test: MIC, tube dilution, Serratia marcescens A20019; assay type: cell-based; settings: overnight 37° C.; for MIC: Serratia marcescens, A20019, Serratia marcescens A20019, read-out: Minimum Inhibitory Concentration (M.I.C.); for Minimum Inhibitory Concentration (M.I.C.): Serratia marcescens A20019
Text: as §1

[17] = system: Ent. cloacae A-9659; test: MIC, tube dilution, Enterobacter cloacae A9659; assay type: cell-based; settings: overnight 37° C.; for MIC: Enterobacter cloacae, A9659, Enterobacter cloacae A9659, read-out: Minimum Inhibitory Concentration (M.I.C.); for Minimum Inhibitory Concentration (M.I.C.): Enterobacter cloacae A9659
Text: as §1

[18] = system: Ent. cloacae A-9656; test: MIC, tube dilution, Enterobacter cloacae A9656; assay type: cell-based; settings: overnight 37° C.; for MIC: read-out: Minimum Inhibitory Concentration (M.I.C.)
Text: as §1

[19] = system: Ps. aeruginosa A-9843A; test: MIC, tube dilution, Pseudomonas aeruginosa A9843A; assay type: cell-based; settings: Pseudomonas aeruginosa, A9843A, read-out: Minimum Inhibitory Concentration (M.I.C.), Pseudomonas aeruginosa A9843A; overnight 37° C.
Text: as §1

[20] = system: Ps. aeruginosa A-21213; test: MIC, tube dilution, Pseudomonas aeruginosa A21213; assay type: cell-based; settings: Pseudomonas aeruginosa A21213; overnight 37° C.; read-out: Minimum Inhibitory Concentration (M.I.C.)
Text: as §1

[21] = Staph. aureus A9606 (Pen-Res), read-out: Minimum Inhibitory Concentration (M.I.C.)
[22] = Staph. aureus A15097 (Meth-Res), read-out: Minimum Inhibitory Concentration (M.I.C.)
[23] = Escherichia coli, A203411, E. coli A20341-1; overnight 37° C.; read-out: Minimum Inhibitory Concentration (M.I.C.)
[24] = A9716, Proteus vulgaris / Proteus mirabilis A9716, read-out: Minimum Inhibitory Concentration (M.I.C.)
[25] = A21205, Providencia stuartii (Pr. rettgeri) A21205, overnight 37° C., read-out: Minimum Inhibitory Concentration (M.I.C.)
[26] = read-out: Minimum Inhibitory Concentration (M.I.C.), Staph. aureus A9606 (Pen-Res)
[27] = read-out: Minimum Inhibitory Concentration (M.I.C.), Staph. aureus A15097 (Meth-Res)
[28] = Escherichia coli, A203411; E. coli A20341-1; overnight 37° C.; read-out: Minimum Inhibitory Concentration (M.I.C.)
[29] = A9716, read-out: Minimum Inhibitory Concentration (M.I.C.), Proteus vulgaris / Proteus mirabilis A9716
[30] = A21205, read-out: Minimum Inhibitory Concentration (M.I.C.)

| SMILES | MIC [1] [µg/mL] | MIC [2] [µg/mL] | MIC [3] [µg/mL] | MIC [4] [µg/mL] | MIC [7] [µg/mL] | MIC [8] [µg/mL] | MIC [10] [µg/mL] | MIC [11] [µg/mL] | MIC [12] [µg/mL] | MIC [14] [µg/mL] | MIC [16] [µg/mL] | MIC [17] [µg/mL] | MIC ([18]; Enterobacter cloacae A9656) [µg/mL] | MIC [19] [µg/mL] | MIC [20] [µg/mL] | MIC [5, 26] [µg/mL] | MIC [6, 27] [µg/mL] | MIC [9, 28] [µg/mL] | MIC [13, 29] [µg/mL] | MIC [15, 30] [µg/mL] | other results |
| --- | --- | --- | --- | --- | --- | --- | --- | --- | --- | --- | --- | --- | --- | --- | --- | --- | --- | --- | --- | --- | --- |
| CC1=C(C(=O)O)N2C(=O)C(C(C)(C)O)C2S1 (centres unmarked) [Example 3, Potassium 6-(2'-Hydroxyisopropyl)-2-methylpenem-3-carboxylate] | 1 | 4 | 2 | > 63 | 125 | 63 | 125 | > 125 | 63 | 125 | 63 | 125 | 125 | > 125 | > 125 |  |  |  |  |  | MIC [5, 21]: 4 µg/mL; MIC [6, 22]: 32 µg/mL; MIC [9, 23]: 63 µg/mL; MIC [13, 24]: 32 µg/mL; MIC [15, 25]: 63 µg/mL |
| COC1=C(C(=O)[O-])N2C(=O)C[C@H]2S1.[Na+] [Preparation 17, Sodium 2-Methoxypenem-3-carboxylate] | > 2 | > 2 | > 2 | > 32 | > 63 | > 63 | > 63 | > 63 | > 63 | > 63 | > 63 | > 63 | > 63 | > 63 | > 63 | > 63 | > 63 | > 63 | > 63 | > 63 |  |
| CC(=O)OCC1=C(C(=O)[O-])N2C(=O)C[C@H]2S1.[Na+] [Preparation 5, Sodium 2-(Acetoxymethyl)penem-3-carboxylate] | > 8 |  | 125 | > 63 | > 125 | > 125 | > 125 | > 125 | > 125 | > 125 | > 125 | > 125 | > 125 | > 125 | > 125 | > 125 | > 125 | > 125 | > 125 | > 125 | Minimum Inhibitory Concentration (M.I.C.) [1]: 16 µg/mL; Minimum Inhibitory Concentration (M.I.C.) [3]: > 125 µg/mL |
| CC1=C(C(=O)O)N2C(=O)C[C@H]2S1 [Preparation 4(+), (+)-2-Methylpenem-3-carboxylic Acid] |  |  |  |  |  |  |  |  |  |  |  |  |  |  |  |  |  |  |  |  | Minimum Inhibitory Concentration (M.I.C.) [1]: 0.06 µg/mL; Minimum Inhibitory Concentration (M.I.C.) ([2]; Str. pyogenes A9604): 0.25 µg/mL; Minimum Inhibitory Concentration (M.I.C.) [3]: 0.5 µg/mL; Minimum Inhibitory Concentration (M.I.C.) [4]: 4 µg/mL; Minimum Inhibitory Concentration (M.I.C.) ([5]; Staph. aureus A9606 (Pen-Res)): 0.5 µg/mL; Minimum Inhibitory Concentration (M.I.C.) [8]: 4 µg/mL; Minimum Inhibitory Concentration (M.I.C.) [10]: 8 µg/mL; Minimum Inhibitory Concentration (M.I.C.) [11]: > 125 µg/mL; Minimum Inhibitory Concentration (M.I.C.) [12]: 4 µg/mL; Minimum Inhibitory Concentration (M.I.C.) [13]: 4 µg/mL; Minimum Inhibitory Concentration (M.I.C.) [14]: 8 µg/mL; Minimum Inhibitory Concentration (M.I.C.) ([15]; Providencia stuartii (Pr. rettgeri) A21205, overnight 37° C.): 4 µg/mL; Minimum Inhibitory Concentration (M.I.C.) [16]: 4 µg/mL; Minimum Inhibitory Concentration (M.I.C.) [17]: 8 µg/mL; Minimum Inhibitory Concentration (M.I.C.) ([18]; Enterobacter cloacae A9656): 8 µg/mL |
| CCCCCC1=C(C(=O)[O-])N2C(=O)C[C@H]2S1.[K+] [Preparation 16, Potassium 2-Pentylpenem-3-carboxylate] |  |  |  | > 63 | 32 | 63 | > 125 | > 125 | 4 | 16 | 125 | > 125 | 125 | > 125 | > 125 | 4 | 125 | > 125 | 4 | 16 | Minimum Inhibitory Concentration (M.I.C.) [12]: 8 µg/mL; Minimum Inhibitory Concentration (M.I.C.) [13]: 8 µg/mL |
| CC1=C(C(=O)O)N2C(=O)C(C(O)c3ccccc3)C2S1 (centres unmarked) [Example 4] | 1 (≈ 3.43 µM) | 4 (≈ 13.7 µM) | 8 (≈ 27.5 µM) | > 63 | 125 (≈ 429 µM) | > 125 | > 125 | > 125 | 63 (≈ 216 µM) | 125 (≈ 429 µM) | > 125 | > 125 |  |  |  |  |  |  |  |  | MIC [5, 21]: 4 µg/mL (≈ 13.7 µM); MIC [6, 22]: 125 µg/mL (≈ 429 µM); MIC [9, 23]: > 125 µg/mL; MIC [13, 24]: 63 µg/mL (≈ 216 µM); MIC [15, 25]: 125 µg/mL (≈ 429 µM); MIC ([18]; Enterobacter cloacae, A9656, Enterobacter cloacae A9656): > 125 µg/mL |
| O=C([O-])C1=C(c2ccccc2)S[C@@H]2CC(=O)N12.[Na+] [Preparation 7, Sodium 2-Phenylpenem-3-carboxylate] |  |  | 2 | > 63 | 16 | 4 | 63 | > 125 | 4 | 32 | 32 | 32 | 125 | > 125 | > 125 | 8 | 63 | > 125 | 4 | 16 | Minimum Inhibitory Concentration (M.I.C.) ([5]; Staph. aureus A9606 (Pen-Res)): 16 µg/mL; Minimum Inhibitory Concentration (M.I.C.) [8]: 8 µg/mL; Minimum Inhibitory Concentration (M.I.C.) [10]: 125 µg/mL; Minimum Inhibitory Concentration (M.I.C.) [14]: 63 µg/mL; Minimum Inhibitory Concentration (M.I.C.) [16]: 63 µg/mL; Minimum Inhibitory Concentration (M.I.C.) [17]: 63 µg/mL |
